Laboratory results taken from PubChem BioAssay (NCI).
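Briefly, cells in 96-well plates were exposed to five compound concentrations for 48 h, and endpoints were estimated by linear interpolation. At the TGI there is no net growth.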

Assays:
Assay in all cases: inhibition of tumour cell growth, NCI panel, 48 h
A549 NSCLC = tested on: A549 NSCLC
HOP-92 NSCLC = tested on: HOP-92 NSCLC
786-0 renal = tested on: 786-0 renal
NCI-H226 lung = tested on: NCI-H226 lung
ACHN renal = tested on: ACHN renal
HT29 colon = tested on: HT29 colon
COLO 205 colon = tested on: COLO 205 colon
HCT-116 colon = tested on: HCT-116 colon
SK-MEL-2 melanoma = tested on: SK-MEL-2 melanoma
SF-539 CNS = tested on: SF-539 CNS
SK-MEL-28 melanoma = tested on: SK-MEL-28 melanoma
NCI/ADR-RES ovarian = tested on: NCI/ADR-RES ovarian
LOX IMVI melanoma = tested on: LOX IMVI melanoma
SF-295 CNS = tested on: SF-295 CNS
SK-OV-3 ovarian = tested on: SK-OV-3 ovarian
SNB-75 CNS = tested on: SNB-75 CNS
HCC-2998 colon = tested on: HCC-2998 colon
RPMI-8226 leukemia = tested on: RPMI-8226 leukemia
HOP-62 NSCLC = tested on: HOP-62 NSCLC
A498 renal = tested on: A498 renal
RXF 393 renal = tested on: RXF 393 renal
NCI-H460 lung = tested on: NCI-H460 lung
NCI-H522 lung = tested on: NCI-H522 lung
IGROV1 ovarian = tested on: IGROV1 ovarian
OVCAR-4 ovarian = tested on: OVCAR-4 ovarian
KM12 colon = tested on: KM12 colon
OVCAR-3 ovarian = tested on: OVCAR-3 ovarian
OVCAR-5 ovarian = tested on: OVCAR-5 ovarian
SN12C renal = tested on: SN12C renal
HS 578T breast = tested on: HS 578T breast
MALME-3M melanoma = tested on: MALME-3M melanoma
K-562 leukemia = tested on: K-562 leukemia
MOLT-4 leukemia = tested on: MOLT-4 leukemia
OVCAR-8 ovarian = tested on: OVCAR-8 ovarian
HL-60(TB) leukemia = tested on: HL-60(TB) leukemia
CAKI-1 renal = tested on: CAKI-1 renal
EKVX NSCLC = tested on: EKVX NSCLC
MDA-MB-435 = tested on: MDA-MB-435
BT-549 breast = tested on: BT-549 breast
PC-3 prostate = tested on: PC-3 prostate
MCF7 breast = tested on: MCF7 breast
NCI-H23 lung = tested on: NCI-H23 lung
U251 CNS = tested on: U251 CNS
SF-268 CNS = tested on: SF-268 CNS
UACC-62 melanoma = tested on: UACC-62 melanoma
TK-10 renal = tested on: TK-10 renal
CCRF-CEM leukemia = tested on: CCRF-CEM leukemia
HCT-15 colon = tested on: HCT-15 colon
UACC-257 melanoma = tested on: UACC-257 melanoma
UO-31 renal = tested on: UO-31 renal
SK-MEL-5 melanoma = tested on: SK-MEL-5 melanoma
T-47D breast = tested on: T-47D breast
MDA-N = tested on: MDA-N
SW-620 colon = tested on: SW-620 colon
DU-145 prostate = tested on: DU-145 prostate
M14 melanoma = tested on: M14 melanoma
MDA-MB-231 breast = tested on: MDA-MB-231 breast
SNB-19 CNS = tested on: SNB-19 CNS

With O=C(Nc1ccccc1)c1cc(S(=O)(=O)Nc2nc3ncccc3[nH]2)c(SSc2cc(Cl)c(C(=O)Nc3ccccc3)cc2S(=O)(=O)Nc2nc3ncccc3[nH]2)cc1Cl as the compound, how does the TGI (A549 NSCLC) read?
The TGI was > 100 µM.

And the TGI (HOP-92 NSCLC)?
The TGI was > 100 µM.

What about the TGI (786-0 renal) of the same compound?
Its TGI is > 100 µM.

And the TGI (NCI-H226 lung)?
Its TGI is > 100 µM.

What about the TGI (ACHN renal) of the same compound?
The TGI was > 100 µM.

And the TGI (HT29 colon)?
The TGI was > 100 µM.

And the TGI (COLO 205 colon)?
Its TGI is > 100 µM.

What about the TGI (HCT-116 colon) of the same compound?
The TGI was > 100 µM.

What about the TGI (SK-MEL-2 melanoma) of the same compound?
Its TGI is > 100 µM.

And the TGI (SF-539 CNS)?
Its TGI is > 100 µM.

What about the TGI (SK-MEL-28 melanoma) of the same compound?
The TGI was > 100 µM.

And the TGI (NCI/ADR-RES ovarian)?
Its TGI is > 100 µM.

What about the TGI (LOX IMVI melanoma) of the same compound?
The TGI was > 100 µM.

And the TGI (SF-295 CNS)?
Its TGI is > 100 µM.

And the TGI (SK-OV-3 ovarian)?
Its TGI is > 100 µM.

And the TGI (SNB-75 CNS)?
Its TGI is > 100 µM.

What about the TGI (HCC-2998 colon) of the same compound?
The TGI was > 100 µM.

And the TGI (RPMI-8226 leukemia)?
Its TGI is > 100 µM.

And the TGI (HOP-62 NSCLC)?
Its TGI is > 100 µM.

And the TGI (A498 renal)?
Its TGI is > 100 µM.

And the TGI (RXF 393 renal)?
Its TGI is > 100 µM.

And the TGI (NCI-H460 lung)?
Its TGI is > 100 µM.

And the TGI (NCI-H522 lung)?
Its TGI is > 100 µM.

What about the TGI (IGROV1 ovarian) of the same compound?
The TGI was > 100 µM.

What about the TGI (OVCAR-4 ovarian) of the same compound?
Its TGI is > 100 µM.

What about the TGI (KM12 colon) of the same compound?
The TGI was > 100 µM.

And the TGI (OVCAR-3 ovarian)?
Its TGI is > 100 µM.

What about the TGI (OVCAR-5 ovarian) of the same compound?
Its TGI is > 100 µM.

And the TGI (SN12C renal)?
Its TGI is > 100 µM.

What about the TGI (HS 578T breast) of the same compound?
The TGI was > 100 µM.

What about the TGI (MALME-3M melanoma) of the same compound?
The TGI was > 100 µM.

What about the TGI (K-562 leukemia) of the same compound?
The TGI was > 100 µM.

What about the TGI (MOLT-4 leukemia) of the same compound?
The TGI was > 100 µM.

And the TGI (OVCAR-8 ovarian)?
The TGI was > 100 µM.

And the TGI (HL-60(TB) leukemia)?
The TGI was > 100 µM.

What about the TGI (CAKI-1 renal) of the same compound?
Its TGI is > 100 µM.

And the TGI (EKVX NSCLC)?
The TGI was > 100 µM.

And the TGI (MDA-MB-435)?
Its TGI is > 100 µM.

And the TGI (BT-549 breast)?
Its TGI is > 100 µM.

And the TGI (PC-3 prostate)?
Its TGI is > 100 µM.

And the TGI (MCF7 breast)?
Its TGI is > 100 µM.

What about the TGI (NCI-H23 lung) of the same compound?
The TGI was > 100 µM.

And the TGI (U251 CNS)?
The TGI was > 100 µM.

What about the TGI (SF-268 CNS) of the same compound?
Its TGI is > 100 µM.

And the TGI (UACC-62 melanoma)?
Its TGI is > 100 µM.

What about the TGI (TK-10 renal) of the same compound?
Its TGI is > 100 µM.

What about the TGI (CCRF-CEM leukemia) of the same compound?
Its TGI is > 100 µM.

And the TGI (HCT-15 colon)?
Its TGI is > 100 µM.

What about the TGI (UACC-257 melanoma) of the same compound?
The TGI was > 100 µM.

What about the TGI (UO-31 renal) of the same compound?
Its TGI is > 100 µM.

What about the TGI (SK-MEL-5 melanoma) of the same compound?
The TGI was > 100 µM.

What about the TGI (T-47D breast) of the same compound?
Its TGI is > 100 µM.

What about the TGI (MDA-N) of the same compound?
Its TGI is > 100 µM.

What about the TGI (SW-620 colon) of the same compound?
The TGI was > 100 µM.

And the TGI (DU-145 prostate)?
Its TGI is > 100 µM.

And the TGI (M14 melanoma)?
Its TGI is > 100 µM.

And the TGI (MDA-MB-231 breast)?
Its TGI is > 100 µM.

And the TGI (SNB-19 CNS)?
Its TGI is > 100 µM.

What does the source list for CCCCCc1cc2cc3c(c(O)c2c(=O)[nH]1)C1(CC3)C(O)=c2c(=O)c3c(=O)cc(OC)c(=O)c=3c(=O)c2=C1O (centres undefined)?
TGI (A549 NSCLC): 6.06 µM; TGI (HOP-92 NSCLC): 1.25 µM; TGI (786-0 renal): 2.91 µM; TGI (NCI-H226 lung): 4.58 µM; TGI (ACHN renal): 2.18 µM; TGI (HT29 colon): 2.9 µM; TGI (COLO 205 colon): 0.449 µM; TGI (HCT-116 colon): 2.8 µM; TGI (SK-MEL-2 melanoma): 3.3 µM; TGI (SK-MEL-28 melanoma): 4.26 µM; TGI (NCI/ADR-RES ovarian): 7.35 µM; TGI (LOX IMVI melanoma): 2.65 µM; TGI (SF-295 CNS): 18.7 µM; TGI (SK-OV-3 ovarian): 9.96 µM; TGI (SNB-75 CNS): 4.68 µM; TGI (HCC-2998 colon): 3.92 µM; TGI (RPMI-8226 leukemia): 2.42 µM; TGI (HOP-62 NSCLC): 12.8 µM; TGI (A498 renal): 5.26 µM; TGI (RXF 393 renal): 3.55 µM; TGI (NCI-H460 lung): 3.35 µM; TGI (NCI-H522 lung): 1.69 µM; TGI (IGROV1 ovarian): 4.4 µM; TGI (OVCAR-4 ovarian): 3.02 µM; TGI (KM12 colon): 5.4 µM; TGI (OVCAR-3 ovarian): 1.93 µM; TGI (OVCAR-5 ovarian): 5.86 µM; TGI (SN12C renal): 3.42 µM; TGI (HS 578T breast): 15.3 µM; TGI (MALME-3M melanoma): 2.54 µM; TGI (K-562 leukemia): 2.29 µM; TGI (MOLT-4 leukemia): 4.48 µM; TGI (OVCAR-8 ovarian): 3.26 µM; TGI (HL-60(TB) leukemia): 1.41 µM; TGI (CAKI-1 renal): 1.8 µM; TGI (EKVX NSCLC): 3.36 µM; TGI (MDA-MB-435): 3.93 µM; TGI (BT-549 breast): 3.6 µM; TGI (PC-3 prostate): 2.24 µM; TGI (MCF7 breast): 2.23 µM; TGI (NCI-H23 lung): 2.77 µM; TGI (U251 CNS): 2.75 µM; TGI (SF-268 CNS): 3.56 µM; TGI (UACC-62 melanoma): 4.82 µM; TGI (CCRF-CEM leukemia): 0.884 µM; TGI (HCT-15 colon): 2.24 µM; TGI (UACC-257 melanoma): 2.14 µM; TGI (UO-31 renal): 2.38 µM; TGI (SK-MEL-5 melanoma): 2.22 µM; TGI (T-47D breast): 3.58 µM; TGI (MDA-N): 3.71 µM; TGI (SW-620 colon): 3.31 µM; TGI (DU-145 prostate): 3.46 µM; TGI (M14 melanoma): 3.22 µM; TGI (MDA-MB-231 breast): 2.16 µM; TGI (SNB-19 CNS): 3.74 µM
